This is an account of results in ChEMBL document CHEMBL5365471, “Discovery of marine phidianidine-based Nrf2 activators and their potential against oxLDL- and HG-induced injury in HUVECs” (Bioorg Med Chem Lett, 2023).

The source made the active and inactive calls. No cut-off for these calls is given here.

In series [1] the target is T1, Nuclear factor erythroid 2-related factor 2 (Homo sapiens) (UniProt Q16236).
T1 sequence (whole entry): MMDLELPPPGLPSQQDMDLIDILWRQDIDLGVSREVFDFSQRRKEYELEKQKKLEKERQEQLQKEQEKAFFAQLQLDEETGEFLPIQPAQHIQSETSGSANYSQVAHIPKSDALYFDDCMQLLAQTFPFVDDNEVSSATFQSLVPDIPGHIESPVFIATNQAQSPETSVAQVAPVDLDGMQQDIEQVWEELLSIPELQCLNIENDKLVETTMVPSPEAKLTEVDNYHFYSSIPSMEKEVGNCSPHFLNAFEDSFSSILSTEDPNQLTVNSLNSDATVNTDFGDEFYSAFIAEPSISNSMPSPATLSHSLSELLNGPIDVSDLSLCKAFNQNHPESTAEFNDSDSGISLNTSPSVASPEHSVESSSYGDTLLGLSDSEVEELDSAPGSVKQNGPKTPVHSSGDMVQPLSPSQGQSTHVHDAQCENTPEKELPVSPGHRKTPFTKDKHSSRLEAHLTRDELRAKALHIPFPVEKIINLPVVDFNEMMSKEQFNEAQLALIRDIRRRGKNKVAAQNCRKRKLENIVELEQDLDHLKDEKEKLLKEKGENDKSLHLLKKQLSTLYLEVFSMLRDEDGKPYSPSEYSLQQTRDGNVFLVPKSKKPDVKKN
Kind of series: Induction of Nrf2/ARE activation in human Hela cells at 1 uM measured after 12 to 24 hrs by luciferase reporter gene assay relative to control. In kind it is cell-based. As to conditions: filed as activator, time 12-24 hrs. A general note: A reporter such as luciferase makes a cellular process visible.

The target of series [2] is T1, Nuclear factor erythroid 2-related factor 2 (Homo sapiens). Kind of series: Induction of Nrf2/ARE activation in human Hela cells at 5 uM measured after 12 to 24 hrs by luciferase reporter gene assay relative to control. It counts as cell-based. The conditions noted are these: filed as activator, time 12-24 hrs.
Series [3] has the same target. Kind of series: Induction of Nrf2/ARE activation in human Hela cells at 10 uM measured after 12 to 24 hrs by luciferase reporter gene assay relative to control. As to conditions: filed as activator, time 12-24 hrs. In kind it is cell-based.
For series [4] the target is unchanged. In words: Induction of Nrf2/ARE activation in human Hela cells at 20 uM measured after 12 to 24 hrs by luciferase reporter gene assay relative to control. The conditions noted are these: filed as activator, time 12-24 hrs. It counts as cell-based.
The test system of series [5] is HUVEC. Kind of series: Cytoprotective activity against oxLDL-induced HUVEC cell damage assessed as increase in cell viability at 10 uM by SRB assay. The conditions noted are these: Homo sapiens. In kind it is functional, cell-based. A general note: The SRB assay estimates cell density from bound dye.
The subject of series [6] is HUVEC. In words: Cytotoxicity against HUVEC assessed as effect on cell viability by SRB assay. It counts as toxicity, cell-based. As to conditions: human.

Turning to `CS(=O)(=O)c1ccc(C(=O)N2CCN(Cc3noc(Cc4c[nH]c5ccccc45)n3)CC2)cc1`, the fold change (FC) was 1.45 in series [1], 1.5 in series [2], 1.52 in series [3] and 1.67 in series [4].
The like results for `COc1cc(/C=C/C(=O)N2CCN(Cc3noc(Cc4c[nH]c5ccccc45)n3)CC2)cc(OC)c1O` were, in that order, 1.23, 1.87, 2.65 and 3.08.
For `Cc1ccc(C(=O)N2CCN(Cc3noc(Cc4c[nH]c5ccccc45)n3)CC2)cc1`, the fold change (FC) in series [1] was 1.04; in series [2] it was 1.11; in series [3], 1.23; in series [4], 1.36.
In the same order, the values of `COc1ccc(/C=C/C(=O)N2CCN(Cc3noc(Cc4c[nH]c5ccccc45)n3)CC2)cc1OC` are 1.34, 2.93, 5.79 and 7.22.
`O=C(/C=C/c1ccc(O)cc1)N1CCN(Cc2noc(Cc3c[nH]c4ccccc34)n2)CC1`: the result in the series on HUVEC [5] was inactive. The fold change (FC) in series [1] was 1.52; in series [2] it was 3.44; in series [3] it was 6.25; in series [4] it was 5.41. Besides, the Activity result in the series on HUVEC [6] is “Non-Toxic”.
For `COc1cc(/C=C/C(=O)N2CCN(Cc3noc(Cc4c[nH]c5ccccc45)n3)CC2)ccc1O`, the fold change (FC) in series [1] was 1.29; in series [2] it was 2.34; in series [3], 3.12; in series [4] it was 3.56.
The like results for `COc1ccc(/C=C/C(=O)N2CCN(Cc3noc(Cc4c[nH]c5ccccc45)n3)CC2)cc1` were, in that order, 1.22, 1.65, 1.96 and 2.07.
In the same order, the values of `c1ccc(CN2CCN(Cc3noc(Cc4c[nH]c5ccccc45)n3)CC2)cc1` are 1.09, 1.51, 1.64 and 2.09.
With `O=C(/C=C/c1cccc(Br)c1)N1CCN(Cc2noc(Cc3c[nH]c4ccccc34)n2)CC1`, the outcome in the series on HUVEC [5] was inactive. Besides, the fold change (FC) turned out to be 1.31 in series [1], 1.86 in series [2], 3.97 in series [3] and 2.56 in series [4]. Besides, the Activity entry in the series with HUVEC [6] is given as “Non-Toxic”.
On to `O=C(/C=C/c1ccccc1O)N1CCN(Cc2noc(Cc3c[nH]c4ccccc34)n2)CC1`, for which the fold change (FC) in series [1] is 1.2; in series [2], 3.01; in series [3], 6.31; in series [4], 6.08.
As for `COc1cccc(/C=C/C(=O)N2CCN(Cc3noc(Cc4c[nH]c5ccccc45)n3)CC2)c1OC`, the result with HUVEC [5] was inactive. Besides, the fold change (FC) turned out to be 2.15 in series [1], 3.65 in series [2], 6.91 in series [3] and 6.37 in series [4]. In the series on HUVEC [6], the Activity result is “Non-Toxic”.
On to `O=C(/C=C/c1ccc(Cl)cc1)N1CCN(Cc2noc(Cc3c[nH]c4ccccc34)n2)CC1`, for which the result with HUVEC [5] was Active. The fold change (FC) in series [1] is 1.21; in series [2] it was 2.24; in series [3] it was 4.09; in series [4], 6.12. For the same compound, the Activity result with HUVEC [6] was “Non-Toxic”.
Regarding `O=C(/C=C/c1ccccc1)N1CCN(Cc2noc(Cc3c[nH]c4ccccc34)n2)CC1`, the fold change (FC) in series [1] was determined as 1.05; in series [2], 1.32; in series [3] it was 2.57; in series [4], 2.89.
Consider `COc1cc(OC)c(OC)cc1/C=C/C(=O)N1CCN(Cc2noc(Cc3c[nH]c4ccccc34)n2)CC1`, for which the outcome in the series on HUVEC [5] was inactive. Also, the fold change (FC) stood at 1.32 in series [1], 2.79 in series [2], 5.79 in series [3] and 5.46 in series [4]. Further, the Activity entry in the series on HUVEC [6] is “Non-Toxic”.
Turning to `COc1cc(/C=C/C(=O)N2CCN(Cc3noc(Cc4c[nH]c5ccccc45)n3)CC2)cc(OC)c1OC`, the fold change (FC) in series [1] worked out at 1.24; in series [2], 2.6; in series [3] it was 6.23; in series [4], 6.86.
As to `O=C(/C=C/c1ccc2c(c1)OCO2)N1CCN(Cc2noc(Cc3c[nH]c4ccccc34)n2)CC1`, the fold change (FC) in series [1] amounted to 1.12; in series [2] it was 2.07; in series [3], 4.97; in series [4], 3.24.
For `Fc1cccc(CN2CCN(Cc3noc(Cc4c[nH]c5ccccc45)n3)CC2)c1`, the fold change (FC) in series [1] is 1.36; in series [2] it was 1.42; in series [3] it was 1.54; in series [4], 1.86.
In the same order, the values of `Brc1cccc(CN2CCN(Cc3noc(Cc4c[nH]c5ccccc45)n3)CC2)c1` are 1.12, 1.25, 1.31 and 1.54.
In the same order, the values of `CC(C)(C)c1cc(O)ccc1O` are 1.17, 1.24, 1.98 and 2.78.
As to `COc1cccc(CN2CCN(Cc3noc(Cc4c[nH]c5ccccc45)n3)CC2)c1`, the fold change (FC) is 1.15 in series [1], 1.12 in series [2], 1.43 in series [3] and 1.47 in series [4].
Consider `COc1ccc(OC)c(/C=C/C(=O)N2CCN(Cc3noc(Cc4c[nH]c5ccccc45)n3)CC2)c1`, for which the fold change (FC) came to 1.12 in series [1], 1.77 in series [2], 4.35 in series [3] and 3.66 in series [4].
In the same order, the values of `c1ccc2cc(CN3CCN(Cc4noc(Cc5c[nH]c6ccccc56)n4)CC3)ccc2c1` are 1.09, 1.51, 1.86 and 2.04.
As to `N#Cc1ccc(C(=O)N2CCN(Cc3noc(Cc4c[nH]c5ccccc45)n3)CC2)cc1`, the fold change (FC) in series [1] stood at 1.18; in series [2] it was 1.25; in series [3], 1.37; in series [4] it was 1.4.
In the case of `COc1cccc(/C=C/C(=O)N2CCN(Cc3noc(Cc4c[nH]c5ccccc45)n3)CC2)c1`, the fold change (FC) in series [1] is 1.09; in series [2], 1.89; in series [3] it was 2.97; in series [4], 4.07.
For `O=C(/C=C/c1cccc(O)c1)N1CCN(Cc2noc(Cc3c[nH]c4ccccc34)n2)CC1`, the result in the series with HUVEC [5] was Active. For the same compound, the fold change (FC) in series [1] is 2.3; in series [2] it was 4.71; in series [3], 7.04; in series [4], 7.21. The Activity result with HUVEC [6] was “Non-Toxic”.
Regarding `O=C(/C=C/c1ccc(O)c(O)c1)N1CCN(Cc2noc(Cc3c[nH]c4ccccc34)n2)CC1`, the fold change (FC) came to 1.41 in series [1], 2.96 in series [2], 6.92 in series [3] and 7.86 in series [4].
The like results for `O=C(c1ccccc1)N1CCN(Cc2noc(Cc3c[nH]c4ccccc34)n2)CC1` were, in that order, 1.03, 1.31, 1.44 and 1.21.
In the same order, the values of `O=C(c1ccc(Br)cc1)N1CCN(Cc2noc(Cc3c[nH]c4ccccc34)n2)CC1` are 1.15, 1.21, 1.28 and 1.52.
The like results for `Cc1ccc(CN2CCN(Cc3noc(Cc4c[nH]c5ccccc45)n3)CC2)cc1` were, in that order, 1.18, 1.78, 2.11 and 2.45.
In the case of `CS(=O)(=O)c1ccc(CN2CCN(Cc3noc(Cc4c[nH]c5ccccc45)n3)CC2)cc1`, the fold change (FC) was 1.11 in series [1], 2.04 in series [2], 3.15 in series [3] and 3.78 in series [4].
The like results for `Brc1ccc(CN2CCN(Cc3noc(Cc4c[nH]c5ccccc45)n3)CC2)cc1` were, in that order, 1.45, 2.16, 3.14 and 3.56.
In the same order, the values of `COc1ccccc1/C=C/C(=O)N1CCN(Cc2noc(Cc3c[nH]c4ccccc34)n2)CC1` are 1.23, 2.41, 3.12 and 4.25.
